Data: ChEMBL document CHEMBL1135106 (Bioorg Med Chem Lett, 2002)

How the values were obtained:
[1] = Tested for inhibitory concentration required to inhibit 50% of histone deacetylase (HDAC) from human T cell leukemia Jurkat cell; type: cell-based
HCT-116 = experiment: Tested for antiproliferative activity against HCT116 colorectal human carcinoma cell using WST-1 assay; type: functional, cell-based
[2] = Tested for inhibitory concentration required to inhibit 50% of histone deacetylase (HDAC) purified from human T cell leukemia Jurkat cell

Row | SMILES | IC50 [1] [µM] | IC50 (HCT-116) [µM] | IC50 [2] [µM]
1 | CC(/C=C/C(=O)NO)=C\[C@@H](C)C(=O)c1ccc(N(C)C)cc1 [TRICHOSTATIN] | 0.0033 |  | 
2 | O=C(NCC1CCC(C(=O)NO)CC1)NC12CC3CC(CC(C3)C1)C2 (stereo not drawn) |  | 20.9 | 
3 | O=C(NCc1ccc(C(=O)NO)cc1)NC12CC3CC(CC(C3)C1)C2 |  | 112 | 
4 | O=C(NO)C1CCC(CNS(=O)(=O)c2ccccc2)CC1 (stereo not drawn) |  | 77.9 | 
5 | O=C(NO)c1ccc(CNC(=O)c2cccc3ccccc23)cc1 |  | 9.7 | 0.83

Second part, the molecule after the results:

Row | IC50 [1] [µM] | IC50 (HCT-116) [µM] | IC50 [2] [µM] | SMILES
6 |  | 0.7 | 0.044 | O=C(NO)c1ccc(CNC(=O)c2ccc3ccccc3c2)cc1
7 |  | 5.4 |  | Nc1ccccc1NC(=O)c1ccc(CNC(=O)OCc2cccnc2)cc1 [ENTINOSTAT]
8 |  | 4.7 | 0.31 | O=C(NCC1CCC(C(=O)NO)CC1)c1ccc(-c2ccccc2)cc1 (stereo not drawn)
9 |  | 3.2 | 0.24 | O=C(NO)c1ccc(CNC(=O)c2ccc(-c3ccccc3)cc2)cc1
